From PubChem BioAssay (NCI)
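Where inhibition never reached the appropriate level, the endpoint shown equals the highest concentration tested. Otherwise, values were interpolated linearly from a five-concentration, 48-hour dose response in 96-well plates. GI50 is the concentration that inhibits growth by half. TGI is the concentration that stops growth completely.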

Legend:
Experiment in all cases: NCI tumour cell line growth inhibition, 48 h
[1] = test system: 786-0 renal
[2] = test system: A498 renal
[3] = test system: A549 NSCLC
[4] = test system: ACHN renal
[5] = test system: BT-549 breast
[6] = test system: CAKI-1 renal
[7] = test system: CCRF-CEM leukemia
[8] = test system: COLO 205 colon
[9] = test system: DU-145 prostate
[10] = test system: EKVX NSCLC
[11] = test system: HCC-2998 colon
[12] = test system: HCT-116 colon
[13] = test system: HCT-15 colon
[14] = test system: HL-60(TB) leukemia
[15] = test system: HOP-62 NSCLC
[16] = test system: HOP-92 NSCLC
[17] = test system: HS 578T breast
[18] = test system: HT29 colon
[19] = test system: IGROV1 ovarian
[20] = test system: K-562 leukemia
[21] = test system: KM12 colon
[22] = test system: LOX IMVI melanoma
[23] = test system: M14 melanoma
[24] = test system: MALME-3M melanoma
[25] = test system: MCF7 breast
[26] = test system: MDA-MB-231 breast
[27] = test system: MDA-MB-435
[28] = test system: MOLT-4 leukemia
[29] = test system: NCI-H226 lung
[30] = test system: NCI-H23 lung
[31] = test system: NCI-H460 lung
[32] = test system: NCI-H522 lung
[33] = test system: NCI/ADR-RES ovarian
[34] = test system: OVCAR-3 ovarian
[35] = test system: OVCAR-4 ovarian
[36] = test system: OVCAR-5 ovarian
[37] = test system: PC-3 prostate
[38] = test system: RPMI-8226 leukemia
[39] = test system: RXF 393 renal
[40] = test system: SF-268 CNS
[41] = test system: SF-295 CNS
[42] = test system: SF-539 CNS
[43] = test system: SK-MEL-2 melanoma
[44] = test system: SK-MEL-28 melanoma
[45] = test system: SK-MEL-5 melanoma
[46] = test system: SK-OV-3 ovarian
[47] = test system: SN12C renal
[48] = test system: SNB-19 CNS
[49] = test system: SNB-75 CNS
[50] = test system: SR leukemia
[51] = test system: SW-620 colon
[52] = test system: T-47D breast
[53] = test system: TK-10 renal
[54] = test system: U251 CNS
[55] = test system: UACC-257 melanoma
[56] = test system: UACC-62 melanoma
[57] = test system: UO-31 renal
[58] = test system: OVCAR-8 ovarian

Compound `COc1ccc(CN2C(=O)/C(=C\C(=O)c3ccc(OCCN4CCCCC4)cc3)c3ccccc32)cc1` has a GI50 [1] of 1660 nM, a TGI [1] of 3.11 µM and a GI50 [2] of 13.5 µM. It also gave a TGI [2] of 27 µM, a GI50 [3] of 15.9 µM and a TGI [3] of 31.2 µM. The GI50 [4] was 1690 nM, the TGI [4] was 3.05 µM and the GI50 [5] was 5250 nM. The TGI [5] was 16.5 µM, the GI50 [6] was 5090 nM and the TGI [6] was 18.1 µM. The GI50 [7] was 3010 nM, the TGI [7] was 14 µM and the GI50 [8] was 1860 nM. It also gave a TGI [8] of 3970 nM, a GI50 [9] of 3350 nM and a TGI [9] of 11.5 µM. For the same compound, the GI50 [10] was 4940 nM, the TGI [10] was 19.6 µM and the GI50 [11] was 2400 nM. It also gave a TGI [11] of 5.05 µM, a GI50 [12] of 1540 nM and a TGI [12] of 2880 nM. The GI50 [13] was 1670 nM, the TGI [13] was 3.37 µM and the GI50 [14] was 2350 nM. The TGI [14] was 6.43 µM, the GI50 [15] was 20.2 µM and the TGI [15] was 35.4 µM. The GI50 [16] was 1640 nM, the TGI [16] was 3.89 µM and the GI50 [17] was 3790 nM. The TGI [17] was 25.5 µM, the GI50 [18] was 1800 nM and the TGI [18] was 3570 nM. For the same compound, the GI50 [19] was 2080 nM, the TGI [19] was 4.48 µM and the GI50 [20] was 2310 nM. The TGI [20] was 10.4 µM, the GI50 [21] was 12 µM and the TGI [21] was 28.6 µM. For the same compound, the GI50 [22] was 1650 nM, the TGI [22] was 3.04 µM and the GI50 [23] was 1830 nM. For the same compound, the TGI [23] was 3850 nM, the GI50 [24] was 1820 nM and the TGI [24] was 3.41 µM. The GI50 [25] was 1850 nM, the TGI [25] was 4.6 µM and the GI50 [26] was 2150 nM. It also gave a TGI [26] of 4.56 µM, a GI50 [27] of 3.12 µM and a TGI [27] of 12.3 µM. For the same compound, the GI50 [28] was 2260 nM, the TGI [28] was 6.26 µM and the GI50 [29] was 14.9 µM. It also gave a TGI [29] of 32.2 µM, a GI50 [30] of 6.68 µM and a TGI [30] of 21.6 µM. It also gave a GI50 [31] of 7.67 µM, a TGI [31] of 22.3 µM and a GI50 [32] of 1970 nM. It also gave a TGI [32] of 3780 nM, a GI50 [33] of 3.84 µM and a TGI [33] of 22.5 µM. It also gave a GI50 [34] of 1930 nM, a TGI [34] of 3940 nM and a GI50 [35] of 2620 nM. The TGI [35] was 8.13 µM, the GI50 [36] was 1880 nM and the TGI [36] was 5.94 µM. For the same compound, the GI50 [37] was 2700 nM, the TGI [37] was 5.55 µM and the GI50 [38] was 2310 nM. It also gave a TGI [38] of 5.62 µM, a GI50 [39] of 1690 nM and a TGI [39] of 3.22 µM. For the same compound, the GI50 [40] was 4030 nM, the TGI [40] was 19.5 µM and the GI50 [41] was 13.8 µM. For the same compound, the TGI [41] was 31.8 µM, the GI50 [42] was 1900 nM and the TGI [42] was 3670 nM. It also gave a GI50 [43] of 13.8 µM, a TGI [43] of 27.9 µM and a GI50 [44] of 1980 nM. For the same compound, the TGI [44] was 4.02 µM, the GI50 [45] was 11 µM and the TGI [45] was 23.5 µM. For the same compound, the GI50 [46] was 18.4 µM, the TGI [46] was 34.3 µM and the GI50 [47] was 1740 nM. It also gave a TGI [47] of 3.5 µM, a GI50 [48] of 4630 nM and a TGI [48] of 17.1 µM. For the same compound, the GI50 [49] was 12.8 µM, the TGI [49] was 27.6 µM and the GI50 [50] was 2040 nM. It also gave a TGI [50] of 7.4 µM, a GI50 [51] of 1740 nM and a TGI [51] of 3.51 µM. It also gave a GI50 [52] of 1640 nM, a TGI [52] of 3.29 µM and a GI50 [53] of 1690 nM. For the same compound, the TGI [53] was 3.18 µM, the GI50 [54] was 2240 nM and the TGI [54] was 5.15 µM. The GI50 [55] was 16.8 µM, the TGI [55] was 30.8 µM and the GI50 [56] was 1670 nM. For the same compound, the TGI [56] was 3.13 µM, the GI50 [57] was 1570 nM and the TGI [57] was 2920 nM.
`CCN(CC)c1ccc2c(c1)OC(N)=C(C#N)C2c1cc(OC)c2c(c1)OCO2` (configuration not stated) gave a GI50 [1] of 43.8 nM, a TGI [1] of 3.16 µM and a GI50 [2] of 0.0201 µM. The TGI [2] was 0.0809 µM, the GI50 [3] was 0.0322 µM and the TGI [3] was over 100 µM. The GI50 [4] was 101 nM, the TGI [4] was 6.7 µM and the GI50 [5] was 66.1 nM. The TGI [5] was 0.455 µM, the GI50 [6] was 108 nM and the TGI [6] was 59.1 µM. It also gave a GI50 [7] of 30.8 nM, a TGI [7] of 1.71 µM and a GI50 [8] of 37.7 nM. The TGI [8] was 424 nM, the GI50 [9] was 35.8 nM and the TGI [9] was 0.428 µM. It also gave a GI50 [10] of 76.7 nM, a TGI [10] of over 100 µM and a GI50 [11] of 30.2 nM. It also gave a TGI [11] of 1.35 µM, a GI50 [12] of 32.4 nM and a TGI [12] of 1780 nM. The GI50 [13] was 34.9 nM, the TGI [13] was 3.93 µM and the GI50 [14] was 26.9 nM. For the same compound, the TGI [14] was 0.141 µM, the GI50 [15] was 0.0602 µM and the TGI [15] was 20.3 µM. It also gave a GI50 [16] of 107 nM, a TGI [16] of 3.58 µM and a GI50 [17] of 16.7 nM. The TGI [17] was 0.409 µM, the GI50 [18] was 31.7 nM and the TGI [18] was 309 nM. It also gave a GI50 [19] of 104 nM, a TGI [19] of 33.7 µM and a GI50 [20] of under 17.5 nM. It also gave a TGI [20] of 4.32 µM, a GI50 [21] of 0.0325 µM and a TGI [21] of 0.603 µM. It also gave a GI50 [22] of 57.7 nM, a TGI [22] of 3.86 µM and a GI50 [23] of 13.8 nM. For the same compound, the TGI [23] was 45.9 nM, the GI50 [24] was 445 nM and the TGI [24] was 5.59 µM. The GI50 [25] was 29.4 nM, the TGI [25] was 11.5 µM and the GI50 [26] was 55.7 nM. The TGI [26] was 2.73 µM, the GI50 [27] was under 0.0108 µM and the TGI [27] was 0.0276 µM. For the same compound, the GI50 [28] was 49.7 nM, the TGI [28] was 3.55 µM and the GI50 [29] was 0.047 µM. The TGI [29] was 0.942 µM, the GI50 [30] was 0.0359 µM and the TGI [30] was 14.5 µM. For the same compound, the GI50 [31] was 0.0336 µM, the TGI [31] was 0.503 µM and the TGI [32] was 47.4 nM. The GI50 [33] was under 0.0142 µM, the TGI [33] was 0.0679 µM and the GI50 [34] was 16.8 nM. It also gave a TGI [34] of 46.6 nM, a GI50 [35] of 75.4 nM and a TGI [35] of over 48.6 µM. The GI50 [36] was 63.9 nM, the TGI [36] was 30.1 µM and the GI50 [58] was 39.5 nM. The TGI [58] was 3.53 µM, the GI50 [37] was 30.9 nM and the TGI [37] was over 100 µM. The GI50 [38] was 47.4 nM, the TGI [38] was 2.51 µM and the GI50 [40] was 60 nM. It also gave a TGI [40] of 3.03 µM, a GI50 [41] of under 0.0157 µM and a TGI [41] of 2.68 µM. It also gave a GI50 [42] of 27.1 nM, a TGI [42] of 80.6 nM and a GI50 [43] of 0.0476 µM. For the same compound, the TGI [43] was 13.8 µM, the GI50 [44] was 34.5 nM and the TGI [44] was 22.7 µM. It also gave a GI50 [45] of 0.0287 µM, a TGI [45] of 0.597 µM and a GI50 [46] of 0.035 µM. It also gave a TGI [46] of 12.7 µM, a GI50 [47] of 53.7 nM and a TGI [47] of 6.09 µM. For the same compound, the GI50 [48] was 41.8 nM, the TGI [48] was 51 µM and the GI50 [49] was 0.02 µM. The TGI [49] was 42.5 µM, the GI50 [50] was under 17 nM and the TGI [50] was 1.98 µM. The GI50 [51] was 35.4 nM, the TGI [51] was over 48.9 µM and the GI50 [52] was 3320 nM. It also gave a TGI [52] of 22 µM, a GI50 [53] of 316 nM and a TGI [53] of 25.5 µM. For the same compound, the GI50 [54] was 40.8 nM, the TGI [54] was 2.38 µM and the GI50 [55] was 0.312 µM. For the same compound, the TGI [55] was 14.5 µM, the GI50 [56] was under 18.4 nM and the TGI [56] was 13.5 µM. It also gave a GI50 [57] of 403 nM and a TGI [57] of over 43300 nM.
